Source: ChEMBL document CHEMBL3407489, “Bis-aryl urea derivatives as potent and selective LIM kinase (Limk) inhibitors” (J Med Chem, 2015)

Legend:
LIM domain kinase 1 [1] = target: T1, LIM domain kinase 1 (Homo sapiens, UniProt P53667)
CYP1A2 = target: T2, CYP1A2 (Homo sapiens, UniProt P05177); assay: Inhibition of CYP1A2 (unknown origin) assessed as reduction in phenaceten demethylation to acetaminophen at 10 uM; format: ADME
T2 sequence (P05177 whole entry): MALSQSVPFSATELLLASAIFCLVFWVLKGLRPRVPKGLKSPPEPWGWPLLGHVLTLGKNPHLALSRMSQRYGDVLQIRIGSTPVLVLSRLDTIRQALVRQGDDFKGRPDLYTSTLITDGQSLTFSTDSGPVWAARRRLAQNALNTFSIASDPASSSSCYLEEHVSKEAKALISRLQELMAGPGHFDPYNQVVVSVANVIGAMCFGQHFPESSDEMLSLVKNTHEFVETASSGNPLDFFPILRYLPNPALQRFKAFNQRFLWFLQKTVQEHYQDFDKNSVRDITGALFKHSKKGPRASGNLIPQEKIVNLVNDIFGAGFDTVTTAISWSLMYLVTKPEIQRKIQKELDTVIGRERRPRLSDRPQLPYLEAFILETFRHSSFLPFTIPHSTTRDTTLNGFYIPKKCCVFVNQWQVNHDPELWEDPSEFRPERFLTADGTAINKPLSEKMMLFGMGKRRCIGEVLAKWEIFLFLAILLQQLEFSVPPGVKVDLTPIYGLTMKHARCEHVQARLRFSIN

CYP2D6 = CYP2D6 (Homo sapiens, UniProt P10635); assay: Inhibition of CYP2D6 (unknown origin) assessed as reduction in bufuralol hydroxylation to […] at 10 uM; format: ADME; details: probe bufuralol
Sequence of CYP2D6 (P10635 whole entry): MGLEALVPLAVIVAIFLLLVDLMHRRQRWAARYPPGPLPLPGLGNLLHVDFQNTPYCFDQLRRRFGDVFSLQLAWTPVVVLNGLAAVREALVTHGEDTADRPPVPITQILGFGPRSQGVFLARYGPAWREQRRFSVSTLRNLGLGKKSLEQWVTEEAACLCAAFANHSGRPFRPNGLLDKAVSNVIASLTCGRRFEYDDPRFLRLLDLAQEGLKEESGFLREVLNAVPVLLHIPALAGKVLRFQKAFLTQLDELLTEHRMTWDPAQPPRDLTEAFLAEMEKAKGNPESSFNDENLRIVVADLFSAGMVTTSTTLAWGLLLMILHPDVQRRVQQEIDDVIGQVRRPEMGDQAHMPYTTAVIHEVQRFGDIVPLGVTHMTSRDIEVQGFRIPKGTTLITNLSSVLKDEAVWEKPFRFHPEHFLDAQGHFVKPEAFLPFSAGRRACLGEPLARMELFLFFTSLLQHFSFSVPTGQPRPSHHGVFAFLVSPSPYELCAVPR

CYP3A4 = CYP3A4 (Homo sapiens, UniProt P08684); assay: Inhibition of CYP3A4 (unknown origin) assessed as reduction in midazolam hydroxylation to 1'-Hydroxymidazolam at 10 uM; format: ADME; details: probe midazolam
Sequence of CYP3A4 (P08684 whole entry): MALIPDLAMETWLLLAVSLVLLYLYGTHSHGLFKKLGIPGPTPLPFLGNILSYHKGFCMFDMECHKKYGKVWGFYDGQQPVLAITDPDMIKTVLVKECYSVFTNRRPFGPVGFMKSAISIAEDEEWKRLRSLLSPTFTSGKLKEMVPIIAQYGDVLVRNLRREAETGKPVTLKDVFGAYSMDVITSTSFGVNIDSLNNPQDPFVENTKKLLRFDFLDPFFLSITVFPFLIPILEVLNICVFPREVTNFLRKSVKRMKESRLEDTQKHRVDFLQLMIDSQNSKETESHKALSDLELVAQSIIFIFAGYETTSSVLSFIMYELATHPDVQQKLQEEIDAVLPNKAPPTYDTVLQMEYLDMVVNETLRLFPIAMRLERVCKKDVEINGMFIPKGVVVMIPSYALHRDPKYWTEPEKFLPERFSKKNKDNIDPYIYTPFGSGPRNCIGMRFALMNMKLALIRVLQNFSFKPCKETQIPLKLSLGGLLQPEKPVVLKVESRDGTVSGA

Liver microsome [2] = assay: Half life in human liver microsomes; format: ADME
Liver microsome [3] = assay: Half life in rat liver microsomes; format: ADME
[4] = Volume of distribution in Sprague-Dawley rat at 1 mg/kg, iv by LC-MS/MS and HPLC method; format: ADME, organism-based; design: dose 1 mg/kg, route intravenous; details: in vivo
[5] = Oral bioavailability in Sprague-Dawley rat at 2 mg/kg by LC-MS/MS and HPLC method; format: ADME, organism-based; details: in vivo
CYP2C9 = CYP2C9 (Homo sapiens, UniProt P11712); assay: Inhibition of CYP2C9 (unknown origin) assessed as reduction in tolbutamide hydroxylation to hydrocytolbutamide at 10 uM; format: ADME
Sequence of CYP2C9 (P11712 whole entry, the tested form may be a part): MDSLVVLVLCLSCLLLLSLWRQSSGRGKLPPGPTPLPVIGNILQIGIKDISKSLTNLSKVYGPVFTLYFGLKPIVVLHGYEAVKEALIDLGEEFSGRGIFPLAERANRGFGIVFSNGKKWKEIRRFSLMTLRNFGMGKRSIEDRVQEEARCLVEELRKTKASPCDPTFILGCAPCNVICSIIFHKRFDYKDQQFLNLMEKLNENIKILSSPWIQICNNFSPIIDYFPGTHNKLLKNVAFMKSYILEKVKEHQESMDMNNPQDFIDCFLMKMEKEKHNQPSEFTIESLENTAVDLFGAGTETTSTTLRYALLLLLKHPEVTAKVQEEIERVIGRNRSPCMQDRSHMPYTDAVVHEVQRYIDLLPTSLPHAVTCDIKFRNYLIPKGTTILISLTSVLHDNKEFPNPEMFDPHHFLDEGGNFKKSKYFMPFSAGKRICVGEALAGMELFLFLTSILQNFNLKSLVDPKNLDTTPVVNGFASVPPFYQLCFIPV

LIM domain kinase 1 [6] = target: LIM domain kinase 1 (Rattus norvegicus, UniProt P53669); assay: Inhibition of Limk1 in rat A7r5 cells assessed as reduction in cofilin phosphorylation by Western blot method; format: cell-based
Sequence of LIM domain kinase 1 (Rattus norvegicus, UniProt P53669) (P53669 whole entry, the tested form may be a part): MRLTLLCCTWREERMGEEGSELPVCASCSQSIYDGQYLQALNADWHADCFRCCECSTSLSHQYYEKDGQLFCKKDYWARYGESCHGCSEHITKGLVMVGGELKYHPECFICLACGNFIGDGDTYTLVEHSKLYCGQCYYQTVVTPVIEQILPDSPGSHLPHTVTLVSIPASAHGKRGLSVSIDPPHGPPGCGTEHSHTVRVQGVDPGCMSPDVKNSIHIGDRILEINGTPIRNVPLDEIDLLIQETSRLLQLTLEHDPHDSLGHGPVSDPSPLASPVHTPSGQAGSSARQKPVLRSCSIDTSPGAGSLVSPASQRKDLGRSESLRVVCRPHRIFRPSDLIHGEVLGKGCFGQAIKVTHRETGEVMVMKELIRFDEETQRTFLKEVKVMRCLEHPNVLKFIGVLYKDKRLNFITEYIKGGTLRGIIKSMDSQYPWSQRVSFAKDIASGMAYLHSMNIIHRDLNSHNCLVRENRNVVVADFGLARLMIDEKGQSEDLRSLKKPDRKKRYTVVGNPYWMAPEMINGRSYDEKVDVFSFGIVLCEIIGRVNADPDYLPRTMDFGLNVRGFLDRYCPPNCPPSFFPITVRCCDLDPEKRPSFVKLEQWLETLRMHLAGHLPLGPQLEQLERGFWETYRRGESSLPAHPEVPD

[7] = target: Rho-associated protein kinase 2 (Homo sapiens, UniProt O75116)
Sequence of Rho-associated protein kinase 2 (O75116 whole entry): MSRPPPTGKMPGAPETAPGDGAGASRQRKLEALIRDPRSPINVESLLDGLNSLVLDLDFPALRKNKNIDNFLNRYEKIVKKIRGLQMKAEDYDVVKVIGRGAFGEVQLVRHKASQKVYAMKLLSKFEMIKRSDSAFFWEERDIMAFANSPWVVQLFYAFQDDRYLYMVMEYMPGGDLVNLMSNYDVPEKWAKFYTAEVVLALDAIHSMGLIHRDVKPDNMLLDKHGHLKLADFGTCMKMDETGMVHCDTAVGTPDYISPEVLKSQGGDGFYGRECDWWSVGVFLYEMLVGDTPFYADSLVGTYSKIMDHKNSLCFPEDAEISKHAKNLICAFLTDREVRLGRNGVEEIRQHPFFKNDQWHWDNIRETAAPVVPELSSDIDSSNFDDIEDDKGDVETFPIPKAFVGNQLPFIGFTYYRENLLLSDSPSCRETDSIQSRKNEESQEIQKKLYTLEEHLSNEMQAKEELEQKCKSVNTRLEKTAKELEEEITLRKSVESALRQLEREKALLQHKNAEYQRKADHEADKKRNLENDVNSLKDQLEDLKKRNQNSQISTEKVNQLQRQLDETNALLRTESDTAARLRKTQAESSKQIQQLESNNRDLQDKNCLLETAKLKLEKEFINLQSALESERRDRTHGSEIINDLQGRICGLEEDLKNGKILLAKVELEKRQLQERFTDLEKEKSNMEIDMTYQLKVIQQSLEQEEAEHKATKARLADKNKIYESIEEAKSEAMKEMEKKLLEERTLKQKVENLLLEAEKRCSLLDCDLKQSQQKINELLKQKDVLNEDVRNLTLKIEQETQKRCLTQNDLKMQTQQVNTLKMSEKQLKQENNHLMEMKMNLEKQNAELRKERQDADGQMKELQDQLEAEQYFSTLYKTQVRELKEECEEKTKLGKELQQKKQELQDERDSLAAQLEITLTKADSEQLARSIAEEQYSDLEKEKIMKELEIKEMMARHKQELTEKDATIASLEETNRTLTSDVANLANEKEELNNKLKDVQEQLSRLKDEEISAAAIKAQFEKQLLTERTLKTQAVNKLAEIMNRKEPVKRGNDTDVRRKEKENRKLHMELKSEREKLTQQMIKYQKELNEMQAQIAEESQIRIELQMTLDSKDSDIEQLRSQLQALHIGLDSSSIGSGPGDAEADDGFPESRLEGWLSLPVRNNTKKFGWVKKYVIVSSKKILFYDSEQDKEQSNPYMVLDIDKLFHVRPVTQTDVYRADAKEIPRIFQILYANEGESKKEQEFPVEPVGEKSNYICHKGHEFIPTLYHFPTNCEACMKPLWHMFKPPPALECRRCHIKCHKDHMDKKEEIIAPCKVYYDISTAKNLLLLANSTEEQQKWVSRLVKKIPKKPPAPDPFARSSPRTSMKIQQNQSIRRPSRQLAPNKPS

PC-3 [8] = assay: cells; details: Homo sapiens, PC-3, 48 h, read-out: INH
PC-3 [9] = assay: cells; details: Homo sapiens, PC-3, 24 h, read-out: INH
PC-3 [10] = assay: cells; details: Homo sapiens, PC-3, 24 h, read-out: INH; remark: listed apart in the source
PC-3 [11] = assay: cells; details: Homo sapiens, PC-3, 24 h, read-out: INH; remark: listed apart in the source
LIM domain kinase 1 [12] = target: T1, LIM domain kinase 1; assay: Inhibition of Limk1 (unknown origin)

T1 sequence (P53667 whole entry, the tested form may be a part): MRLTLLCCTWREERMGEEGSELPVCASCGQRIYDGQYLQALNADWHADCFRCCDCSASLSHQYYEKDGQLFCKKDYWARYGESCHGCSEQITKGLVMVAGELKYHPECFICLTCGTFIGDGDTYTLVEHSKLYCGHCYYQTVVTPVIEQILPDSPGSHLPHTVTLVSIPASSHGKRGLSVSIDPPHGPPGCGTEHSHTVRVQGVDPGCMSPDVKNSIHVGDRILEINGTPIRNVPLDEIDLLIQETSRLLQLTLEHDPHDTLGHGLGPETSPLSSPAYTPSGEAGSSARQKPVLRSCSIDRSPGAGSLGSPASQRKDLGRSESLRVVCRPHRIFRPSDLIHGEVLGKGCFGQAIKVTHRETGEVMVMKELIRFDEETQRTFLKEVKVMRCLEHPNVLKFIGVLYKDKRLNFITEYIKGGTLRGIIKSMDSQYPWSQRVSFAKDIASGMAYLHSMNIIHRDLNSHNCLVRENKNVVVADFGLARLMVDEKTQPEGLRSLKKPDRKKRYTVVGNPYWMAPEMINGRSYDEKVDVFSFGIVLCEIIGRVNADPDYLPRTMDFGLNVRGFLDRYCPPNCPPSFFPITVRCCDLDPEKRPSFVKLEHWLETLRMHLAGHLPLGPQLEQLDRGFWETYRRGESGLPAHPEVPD

t1/2 (Liver microsome [2])	t1/2 (Liver microsome [3])	Vd [4]	bioavailability [5]	SMILES	inhibition at 10 µM (CYP1A2)	inhibition at 10 µM (CYP2D6)	other results
		17.1 L/kg	0%	Cc1c[nH]c2ncnc(-c3ccc(NC(=O)N(CCN(C)C)c4ccc(Cl)cc4)cc3)c12			
		4 L/kg	0%	Cc1c[nH]c2ncnc(-c3ccc(NC(=O)N(CCN)c4ccc(Cl)cc4)cc3)c12			
38 min	21 min			COc1cccc(N(CCO)C(=O)Nc2ccc(-c3ncnc4[nH]cc(C)c34)cc2)c1	3%	3%	
56 min	40 min	0.3 L/kg	24%	COc1ccc(N(CCO)C(=O)Nc2ccc(-c3ncnc4[nH]cc(C)c34)cc2)cc1	-8%	-4%	inhibition at 10 µM (CYP2C9): 8%; inhibition at 10 µM (CYP3A4): 2%
87 min	30 min	0.4 L/kg	36%	Cc1c[nH]c2ncnc(-c3ccc(NC(=O)N(CCO)c4ccccc4)cc3)c12	-16%	5%	inhibition at 1 µM (PC-3 [8]): 76%; inhibition at 0.1 µM (PC-3 [9]): 16.5%; inhibition at 1 µM (PC-3 [10]): 74%; inhibition at 10 µM (PC-3 [11]): 77.5%
> 120 min	73 min	0.5 L/kg	20%	Cc1c[nH]c2ncnc(-c3ccc(NC(=O)N(CCO)c4ccc(Cl)cc4)cc3)c12	-12%	4%	IC50 (LIM domain kinase 1 [6]): 118 nM
		6 L/kg	0%	COc1ccc(N(CCN)C(=O)Nc2ccc(-c3ncnc4[nH]cc(C)c34)cc2)cc1			

The remaining lines, values behind:

SMILES	t1/2 (Liver microsome [2])	t1/2 (Liver microsome [3])	Vd [4]	bioavailability [5]	inhibition at 10 µM (CYP1A2)	inhibition at 10 µM (CYP2D6)	other results
COc1ccc(NC(=O)N(CCN2CCCCC2)c2ccc(-c3ncnc4[nH]cc(C)c34)cc2)cc1							IC50 (LIM domain kinase 1 [1]): > 10000 nM
Cc1ccc(N(CCO)C(=O)Nc2ccc(-c3ncnc4[nH]cc(C)c34)cc2)cc1	56 min	39 min	0.3 L/kg	24%	-5%	-4%	inhibition at 10 µM (CYP3A4): 5%
Cc1[nH]c2ncnc(-c3ccc(NC(=O)N(CCN)c4ccc(Cl)cc4)c(F)c3)c2c1C	> 120 min	> 120 min					inhibition at 10 µM (CYP3A4): -11%
COCCN(C(=O)Nc1ccc(-c2ncnc3[nH]c(C)c(C)c23)cc1F)c1ccc(Cl)cc1		13 min	1.2 L/kg				inhibition at 10 µM (CYP2C9): 50%; IC50 (LIM domain kinase 1 [6]): 250 nM
Cc1c[nH]c2ncnc(-c3ccc(NC(=O)N(CCO)c4ccc(F)cc4)cc3)c12	44 min	52 min			-4%	3%	
CC(C)NC(=O)c1cccc(NC(=O)Nc2ccc(-c3ncnc4[nH]cnc34)cc2)c1							IC50 [7]: 5570 nM; IC50 (LIM domain kinase 1 [1]): 1530 nM
Cc1c[nH]c2ncnc(-c3ccc(NC(=O)Nc4cccc(C(=O)NC(C)C)c4)c(F)c3)c12	27 min	55 min	0.7 L/kg	0%			IC50 (LIM domain kinase 1 [6]): 4000 nM
COc1ccccc1N(CCO)C(=O)Nc1ccc(-c2ncnc3[nH]cc(C)c23)cc1							IC50 [7]: > 10000 nM
Cc1c[nH]c2ncnc(-c3ccc(NC(=O)N(CCO)c4ccccc4Cl)cc3)c12		38 min	0.7 L/kg	21%	-4%	1%	IC50 (LIM domain kinase 1 [6]): 420 nM; inhibition at 1 µM (PC-3 [8]): 83%; inhibition at 0.1 µM (PC-3 [9]): 13%; inhibition at 1 µM (PC-3 [10]): 76.1%; inhibition at 10 µM (PC-3 [11]): 81%
Cc1c[nH]c2ncnc(-c3ccc(NC(=O)Nc4ccccc4)cc3)c12			0.5 L/kg	16%			
Cc1[nH]c2ncnc(-c3ccc(NC(=O)N(CCO)c4ccc(Cl)cc4)c(F)c3)c2c1C	99 min	44 min	0.5 L/kg	29%	40%	8%	
Cc1c[nH]c2ncnc(-c3ccc(NC(=O)N(CCO)c4cccc(Cl)c4)cc3)c12	22 min	20 min			-19%	2%	IC50 (LIM domain kinase 1 [6]): 372 nM
Cc1[nH]c2ncnc(-c3ccc(NC(=O)N(CCN(C)C)c4ccc(Cl)cc4)c(F)c3)c2c1C	19 min	23 min	1.5 L/kg			20%	inhibition at 10 µM (CYP2C9): -23%; inhibition at 10 µM (CYP3A4): -9%; IC50 (LIM domain kinase 1 [6]): 320 nM
CC(C)NC(=O)c1cccc(NC(=O)Nc2ccc(-c3ccnc4[nH]ccc34)cc2)c1							IC50 (LIM domain kinase 1 [1]): > 10000 nM
Cc1[nH]c2ncnc(-c3ccc(NC(=O)Nc4cccc(C(=O)NC(C)C)c4)cc3)c2c1C	47 min	> 120 min					
COc1c(C=O)c(O)cc2c1C(=O)c1ccccc1C2=O [DAMNACANTHAL]							IC50 (LIM domain kinase 1 [12]): 800 nM
Cc1c[nH]c2ncnc(-c3ccc(NC(=O)Nc4cccc(C(=O)NC(C)C)c4)cc3)c12			0.3 L/kg	0%			
COc1ccc(NC(=O)N(CCN2CCCC2)c2ccc(-c3ncnc4[nH]cc(C)c34)cc2)cc1							IC50 (LIM domain kinase 1 [1]): 9240 nM
